# Measurements as given in patent US20260232745A1, “INHIBITION OF METHANE PRODUCTION IN RUMINANTS” (Loam Bio Pty Ltd, priority 2023, published 2026).
# Where two headings read alike, the source gives them in different places.
# Tests used:
# [1] = tested on: VHPO expressed in Curvularia sp. 4388 (SEQ ID NO: 2); assay: Enzyme reaction via VHPO mediated pathway, bromoform by GCMS; assay type: biochemical; settings: VHPO (Curvularia sp. AU-4388 supernatant), KBr, H2O2, vanadate, 24 hours at room temperature
# [2] = tested on: methyl-coenzyme M reductase (MCR); settings: background; cited from earlier work
# [3] = tested on: methane production; settings: among the antimethanogenic compounds found in A. taxiformis; cited from earlier work
# [4] = tested on: Curvularia sp. 4388 (NMI Accession No. V22/011149) VHPO, culture supernatant; settings: MCD assay; for Km: pH 5.5, 25° C.
# Protocol: (§1) Kinetic parameters of VHPOs were determined using the monochlorodimedone (MCD) (2-chloro-5,5-dimethyl-1,3-dimedon) assay. The assay was carried out in a 200 μL reaction volume using Greiner UV-Star® 96 well plates. MCD conversion was spectrophotometrically monitored at 290 nm (F=20/mM·cm) using a CLARIOstar® Plus microplate reader (BMG labtech, Germany) at 25° C. […] The buffers were acetate buffer for pH 4-5.5, MES buffer for pH 6 and 6.5, and HEPES buffer for pH 7-8. The MCD mixture was prepared and aliquoted to 96-well plates, followed by enzyme addition (10 μL of appropriate dilution). […] Stock solutions were prepared in advance for KBr (0.25M), Na3VO4 (25 mM), MCD (0.5 mM, adjusted pH to 6), and buffers (1M).
# (§2) The absorbance values were plotted against time. For each curve, the slope of linear regression was determined as the initial velocity (Abs/min) of the enzyme activity.
# [5] = tested on: Curvularia sp. 4388 (NMI Accession No. V22/011149) VHPO, purified, SEQ ID NO: 2; settings: MCD assay; for Km: pH 5.5, 25° C.
# Protocol: as §1, §2
# (§3) The following enzyme concentrations were used in the MCD assay: • For Curvularia sp.
# [6] = tested on: Curvularia spicifera US-188 (ATCC PTA-127510) VHPO, purified, SEQ ID NO: 3; settings: MCD assay; for Ki: pH 6.5, substrate inhibition model; for Km: pH 6.5, 25° C.
# Protocol: as §1, §2, §3
# [7] = tested on: Curvularia pseudobrachyspora US-215 (ATCC PTA-127509) VHPO, purified, SEQ ID NO: 5; settings: MCD assay; for Ki: pH 5.5, substrate inhibition model; for Km: pH 5.5, 25° C.
# Protocol: as §1, §2, §3
# [8] = tested on: Curvularia protuberata US-1111 (ATCC PTA-127607) VHPO, purified, SEQ ID NO: 7; settings: MCD assay; for Km: pH 5.5, 25° C.
# Protocol: as §1, §2, §3
# [9] = MCD assay, pH profile of VHPO activity; assay type: biochemical; settings: for Optimal pH: first value of the cell: pH at which the kinetic parameters were determined; for optimal pH of enzyme activity: typical MCD assay, 25° C., value in brackets in Table 8, footnotes and text
# [10] = pH 5.5, final 20-fold dilution of supernatant
# [11] = read-out: KI (Br-), pH 5.5, substrate inhibition model
# [12] = pH 5.5, final 200-fold dilution
# [13] = read-out: KM (H2O2), H2O2 varied
molecule,measurement,setting,value
CC1(C)CC(=O)CC(=O)C1 [dimedone],GCMS peak for bromoform,[1],significant peak
BrC(Br)Br [bromoform],inhibition of methyl-coenzyme M reductase (MCR),[2],competitive inhibitor
"BrC(Br)Br [Bromoform, bromoform]",activity at inhibiting methane production,[3],highest activity
"[Br-].[K+] [Br-, bromide]",Vmax (Br-),[4]; [10],0.964 [Abs/min]
same,Ki,[4]; [11],1.33 mM
same,Km,"[4]; read-out: KM (Br-), KBr varied",155 µM
same,Vmax (Br-),[5]; [12],0.395 [Abs/min]
same,Ki,[5]; [11],2.9 mM
same,Km,"[5]; read-out: KM (Br-), KBr varied",68 µM
same,Vmax (Br-),"[6]; pH 6.5, final 20-fold dilution",0.356[Abs/min]
same,Ki,[6]; read-out: KI (Br-),17.5 mM
same,Km,"[6]; read-out: KM (Br-), KBr varied",125 µM
same,Vmax (Br-),"[7]; pH 5.5, final 20-fold dilution",0.039 [Abs/min]
same,Ki,[7]; read-out: KI (Br-),9.35 mM
same,Km,"[7]; read-out: KM (Br-), KBr varied",73 µM
same,Vmax (Br-),"[8]; pH 5.5, final 20-fold dilution",0.0083 [Abs/min]
same,Ki,[8]; [11],33.6 mM
same,Km,"[8]; read-out: KM (Br-), KBr varied",38.7 µM
ClC(Br)Br [dibromochloromethane],activity at inhibiting methane production,[3],highest activity
"OO [H2O2, hydrogen peroxide]",Vmax (H2O2),[4]; [10],0.466 [Abs/min]
same,Km,[4]; [13],297 µM
same,Vmax (H2O2),[5]; [12],0.378 [Abs/min]
same,Km,[5]; [13],645 µM
same,Vmax (H2O2),"[6]; pH 6.5, final 20-fold dilution",0.357 [Abs/min]
same,Ki,[6]; read-out: KI (H2O2),2.76 mM
same,Km,[6]; [13],400 µM
same,Vmax (H2O2),"[7]; pH 5.5, final 20-fold dilution",0.123 [Abs/min]
same,Ki,[7]; read-out: KI (H2O2),31.3 mM
same,Km,[7]; [13],3300 µM
same,Vmax (H2O2),"[8]; pH 5.5, final 20-fold dilution",0.0103 [Abs/min]
same,Km,[8]; [13],611 µM
Purified VHPO (SEQ ID NO: 5): VHPO of Curvularia pseudobrachyspora US-215; purified from recombinant P. pastoris (protein) MGSVIPIPLPKIDEPEEYNTNYVLFWNNVGLELNRVTHTVGGPLTGPPLSARALGMLHLAIHDAYFSIYPPTDFTTFLSPDAENAAYRLPSLNGANDARQAVAGAALKMLSSLYMKPDSSSGGSISDNAYAQLALVIDRSVLKAPGGVDRESASFVFGEAVADVFFALLNDPRGASQEGYHPTPGRYKFDDEPTHPVVLVPVDPNNPNGPKKPFRQYHAPFYGKTTKRFATQTEHFLADPPGLRSNADETAEYDDSIRVAVAMGGAQGLNSTKRSPWQTAQGLFWAYDGSNLVGTPPRFYNQIVRRIAVTYKKEEDLANSEVNNADFARLFALVDVACTDAGIFSWKEKWEYEFWRPLSGVRDDGRPDHGDPFWLTLGAPATNTNDIPFKPPFPAYPSGHATFGGAVFQMVRRYYNGRVGTWKDDEPDNIAIDMVISEELNGLNRDLRQPYDPTAPIEDQPGIVRTRIVRHFDSAWEMMFENAISRIFLGVHWRFDAAAARDILIPTTTKDVYAVDNNGATVFQNVEDIRYSTKGTREDREGLFPIGGVPLGIEIADEIFNNGLRPTPPELQPMPQETPVQKPIGQQLVQGLWHDEEGQVPVVKEAP,Optimal pH,[9],pH 5.5
same,optimal pH of enzyme activity,[9],5.5
Purified VHPO (SEQ ID NO: 7): VHPO of Curvularia protuberata US-1111; purified from recombinant P. pastoris (protein) MGSVTPIPLPKIDEPEEYNTNYILFWNYVGLELNRVTHTVGGPLTGPPLSARALGMLHLAVHDAYFSICPPTDFTTFLSPDAENAAYRLPSTNGANDARQAVAGAALKMLTSLYMKPIEQPNPNPSANISDNAYAQLALVLDRSAMEAPGGIDRESASFMFGEAVADVFFALLNDPRGASQEGYHPTPGRYKFDDEPTHPVVLIPVDPNNPNGPKKPFRQYHAPFYGKTTKRFATQSEHFLADPPGLRSNADETAEYDDAIRVAIAMGGAQALNSTKRSPWQTAQGLYWAYDGSNLIGTPPRFYNQIVRRIAVTYKKEEDIANSEVNNADFARLFALVDVACTDAGIFSWKEKWEFEFWRPLSGVRDDGRPDHGDPFWLTLGAPATNTNDIPFKPPFPAYPSGHATFGGAVFQMVRRYYNGRVGTWKDDEPDNIAIDMMISEELNGLNRDLRQPYDPTAPIEDQPGIVRTRIVRHFDSAWELMFENAISRIFLGVHWRFDAAAARDILIPTTTKDVYAVDNNGATVFQNVEDIRYTTKGTREDREGLFPIGGVPLGIEIANEIFENGLKPTPPEIQPMPQETPAQKPVKGMWQEEQVPVVEEAP,Optimal pH,[9],5.5
same,optimal pH of enzyme activity,[9],5
same,optimal pH of enzyme activity,[9]; listed as SEQ ID NO: 7,5
"Purified VHPO (SEQ ID NO: 2): VHPO of Curvularia sp. 4388, reference VHPO; purified from recombinant P. pastoris (protein) MGSITPIPLPKIDEPEEYNTNYILFWNHVGLELNRVTHTVGGPLTGPPLSARALGMLHLAIHDAYFSIYPPTDFSTFLSPNAENAAYRLPSPNGANDARQAVAGAALKMLTSLYMKPVETPNPNPGANISDNAYAQLALVIDRSVLKAPGGVDRESASFMFGETVADVFFALLNDPRGASQEGYHPTPGRYKFDDEPTHPVVLIPVDPNNPNGPKKPFRQYHAPFYGKTTKRFATQSEHFLADPPGLRSNADETAEYDDAIRVAIAMGGAQALNSTKRSPWQTAQGLFWAYDGSNLIGTPPRFYNQIVRRIAVTYKKEEDLANSEVNNADFARLFALVDVACTDAGIFSWKEKWEYEFWRPLSGVRDDGRPDHGDPFWLTLGAPATNTNDIPFKPPFPAYPSGHATFGGAVFQMVRRYYNGRVGTWKDDEPDNIAIDMMISEELNGLNRDLRQPYDPTAPIEDQPGIVRTRIVRHFDSAWELMFENAISRIFLGVHWRFDAAAARDILIPTTTKDVYAVDNNGATVFQNVEDIRYTTKGTREDREGLFPIGGVPLGIEIADEIFNNGLKPTPPELQPMPQQTPVQKPVGQQPVQGMWAEEQAPVIKEAP",Optimal pH,[9],pH 5.5
same,optimal pH of enzyme activity,[9],5.5
Purified VHPO (SEQ ID NO: 3): VHPO of Curvularia spicifera US-188; purified from recombinant P. pastoris (protein) MGSVTPIPIPRIDEPEEYNTNYILFWNHVGLELNRITHTVGGPLTGPPLSARALGMLHLAIHDAYFSICPPSDFTTFLSPDAENVAYRLPSLNGADDARQAVAGAALKMLSLLYMKPVEQPNPNPGANISDNAYAQLGLVLDRSVLKAPGGVDQESASFMFGEAVADVFFALLNDPRGASQEGYHPTLGRYKFDDEPTHPVVLIPVDPNNPNGPKKPFRQYHAPFYGKTTKRFATQSEHFLADPPGLRSNADETAEYDDSIRVAIAMGGAQGLNSTKRSPWQTAQGLYWAYDGSNLIGTPPRFYNQIVRRIAVTYKKEEDLANSEVNNADFARLFALVNVACTDAGIFSWKEKWEFEFWRPLSGVRDDGRPDHGDPFWLTLGAPATNTNDIPFKPPFPAYPSGHATFGGAVFQMVRRYYNGRVGTWKDDEPDNIAIDMMISEELNGLNRDLRQPYDPTAPIEDQPGIVRTRIVRHFDSAWEMMFENAISRIFLGVHWRFDAAAARDILIPTTTKDVYAVDNNGATVFQNVEDVRYSTKGTREGREGLFPIGGVPLGIEIADEIFNNGLRPTPPELQPMPQETPVQKPVEGMWEEEQAPIVNEAP,Optimal pH,[9],6.5
same,optimal pH of enzyme activity,[9],7
